US12396961B2, “Compounds and compositions for intracellular delivery of agents” (ModernaTX, Inc., priority 2015, dated 2025)

What was measured:
hEPO mRNA expression = test: Expression of hEPO in mice (CD-1); format: in vivo, CD-1 mice; settings: Table 7e; hEPO expression, CD-1 mice, 0.5 mpk
Text: FIG. 12 is a set of graphs illustrating hEPO expression levels in CD-1 mice dosed with compounds of the disclosure, compared to MC3. PBS is used as control. […] In graphs A-C numbers 1-14 refer to compositions containing the following: 1: Compound 73, 2: Compound 80, 3: Compound 70; 4: Compound 81; 5: Compound 69; 6: Compound 82; 7: Compound 83; 8: Compound 62; 9: Compound 84; 10: Compound 85; 11: Compound 86; 12: Compound 87; 13: MC3; 14: PBS.
FIG. 13 is a graph showing hEPO levels (pg/mL) in CD-1 mice up to −25 h after administration of a nanoparticle composition containing compounds of the disclosure, compared to a composition containing MC3. Numbers 1-13 refer to compositions containing the following: 1: Compound 73, 2: Compound 80, 3: Compound 70; 4: Compound 81; 5: Compound 69; 6: Compound 82; 7: Compound 83; 8: Compound 62; 9: Compound 84; 10: Compound 85; 11: Compound 86; 12: Compound 87; 13: MC3. […]

[1] = Particle size and polydispersity index (Zetasizer Nano ZS); format: physicochemical; settings: Table 1; for PDI: DOPE 40:20:38.5:1.5, Luc mRNA
Text: Nanoparticle compositions may be characterized by a variety of methods. For example, microscopy (e.g., transmission electron microscopy or scanning electron microscopy) may be used to examine the morphology and size distribution of a nanoparticle composition. Dynamic light scattering or potentiometry (e.g., potentiometric titrations) may be used to measure zeta potentials. Dynamic light scattering may also be utilized to determine particle sizes. Instruments such as the Zetasizer Nano ZS (Malvern Instruments Ltd, Malvern, Worcestershire, UK) may also be used to measure multiple characteristics of a nanoparticle composition, such as particle size, polydispersity index, and zeta potential.
A Zetasizer Nano ZS (Malvern Instruments Ltd, Malvern, Worcestershire, UK) can be used to determine the particle size, the polydispersity index (PDI) and the zeta potential of the nanoparticle compositions in 1×PBS in determining particle size and 15 mM PBS in determining zeta potential.

[2] = tested on: luciferase (Luc) mRNA expression; test: Luc expression (AUC) in CD-1 mice relative to MC3; format: in vivo; settings: for Lipid/MC3 Luc CD-1 (mice): Luc expression relative to MC3, CD-1 mice; for Liver/Spleen Ratio / Lipid/MC3 AUC: Table 7c; for Lipid/MC3 AUC: AUC relative to MC3
Description: FIG. 15 is a graph summarizing luciferase expression levels at 6 h after administration of nanoparticle compositions containing compounds of the disclosure to CD-1 mice at a dose of 0.5 mpk. Total light flux values were acquired via body luminescent imaging (BLI) 6 h after administration. In this Figure, the numbers 1-7 and 10 refer to the compositions containing Compounds 4-10 and MC3 respectively.
In contrast, hEPO expression in rats induced by administration of nanoparticle composition including compound according to one of formulae (I), (Ia1)-(Ia6), (Ib), (II), (IIa), (III), and (IIIa) was substantially lower than that measured for MC3. […] Table 7c and 7d show additional protein expressions and clearance data from compositions with various compounds disclosed herein as compared to with MC3.

| SMILES | Lipid/MC3 AUC (hEPO mRNA expression) | PDI [1] | Lipid/MC3 Luc CD-1 (mice) [2] | further results |
| --- | --- | --- | --- | --- |
| CCCCCCCCCN(CCCC(=O)OCCCCC)CCC1CCCN(C(=O)CN(CCCCCCCCC)CCN(CCCCCCCCC)CCCCCCCCC)C1 (centres unmarked) [Compound 80, Pentyl 4-((2-(1-(N-(2-(dinonylamino)ethyl)-N-nonylglycyl)piperidin-3-yl)ethyl)(nonyl)amino)butanoate] | 1.74 |  |  |  |
| CCCCCCCCCCCCN(CCCCCCCCCCCC)CCN(CCCCCCCCCCCC)CC(=O)N1CC2CC1CN2C(=O)CN(CCCCCCCCC)CCCCCCCCC (centres unmarked) [Compound 43, 2-((2-(Didodecylamino)ethyl)(dodecyl)amino)-1-(5-(dinonylglycyl)-2,5-diazabicyclo[2.2.1]heptan-2-yl)ethan-1-one] |  | 0.220 | 0.34 | Size (nm) ([1]; lipid:DOPE:Chol:PEG-DMG 40:20:38.5:1.5, Luc mRNA, MC3 standard formulation): 99.0 nm |
| CCCCCCCCCN(CCCCCCCCC)CCN(CCCCCCCCC)CC(=O)N1CCN(C(=O)CN(CCCCCCCCC)CCCCCCCC(=O)OC)CC1 [Compound 44, Methyl 8-((2-(4-(N-(2-(dinonylamino)ethyl)-N-nonylglycyl)piperazin-1-yl)-2-oxoethyl)(nonyl)amino)octanoate] |  | 0.190 | 0.82 |  |
| CCCCCCCCCN(CCCC(=O)OCCCCC)CCC(=O)N1CCN(C(=O)CCN(CCCCCCCCC)CCN(CCCCCCCCC)CCCCCCCCC)CC1 [Compound 62, Pentyl 4-((3-(4-(3-((2-(dinonylamino)ethyl)(nonyl)amino)propanoyl)piperazin-1-yl)-3-oxopropyl)(nonyl)amino)butanoate] | 0.97 |  |  |  |
| CCCCCCCCCN(CCCOC(=O)CCCCC)CCCC1CCN(C(=O)CCN(CCCCCCCCC)CCN(CCCCCCCCC)CCCCCCCCC)CC1 [Compound 87, 3-((3-(1-(3-((2-(Dinonylamino)ethyl)(nonyl)amino)propanoyl)piperidin-4-yl)propyl)(nonyl)amino)propyl hexanoate] | 0.80 |  |  |  |
| CCCCCCCCCN(CCCCCCCCC)CCN(CCCCCCCCC)CC(=O)N1CC2CC1CN2C(=O)CN(CCCCCCCCC)CCCCCCCCC (centres unmarked) [Compound 42, 2-(Dinonylamino)-1-(5-(N-(2-(dinonylamino)ethyl)-N-nonylglycyl)-2,5-diazabicyclo[2.2.1]heptan-2-yl)ethan-1-one] |  | 0.190 | 3.99 |  |
| CCCCCCCCCN(CCCCCCCCC)CCN(CCCCCCCCC)CC(=O)N1CCC(CN(CCCCCCCCC)CCCCCCCCC)C1 (centres unmarked) [Compound 70, 2-((2-(Dinonylamino)ethyl)(nonyl)amino)-1-(3-((dinonylamino)methyl)pyrrolidin-1-yl)ethan-1-one] | 1.77 |  |  |  |
| CCCCCCCCCN(CCCCCCCCC)CCCC1CCN(C(=O)CCN(CCCCCCCCC)CCN(CCCCCCCCC)CCCCCCCCC)CC1 [Compound 85, 3-((2-(Dinonylamino)ethyl)(nonyl)amino)-1-(4-(3-(dinonylamino)propyl)piperidin-1-yl)propan-1-one] | 3.54 |  |  |  |
| CCCCCCCCCN(CCCCCCCCC)CCC1CCCN(C(=O)CN(CCCCCCCCC)CCN(CCCCCCCCC)CCCCCCCCC)C1 (centres unmarked) [Compound 73, 2-((2-(Dinonylamino)ethyl)(nonyl)amino)-1-(3-(2-(dinonylamino)ethyl)piperidin-1-yl)ethan-1-one] | 3.93 |  |  |  |
| CCCCCCCCCN(CCCCCCCCC)CCN(CCCCCCCCC)CC(=O)N1CCC(CN(CCCCCCCCC)CCCC(=O)OCCCCC)C1 (centres unmarked) [Compound 82, Pentyl 4-(((1-(N-(2-(dinonylamino)ethyl)-N-nonylglycyl)pyrrolidin-3-yl)methyl)(nonyl)amino)butanoate] | 3.62 |  |  |  |
| CCCCCCCCCN(CCCCCC(=O)OCCC)CCC1CCN(C(=O)CN(CCCCCCCCC)CCN(CCCCCCCCC)CCCCCCCCC)CC1 [Compound 59, Propyl 6-((2-(1-(N-(2-(dinonylamino)ethyl)-N-nonylglycyl)piperidin-4-yl)ethyl)(nonyl)amino)hexanoate] |  |  |  | Liver/Spleen Ratio [2]: 5; Lipid/MC3 AUC [2]: 0.84 |
| CCCCCCCCCN(CCCC(=O)OCCCCC)CCC1CCN(C(=O)CN(CCCCCCCCC)CCN(CCCCCCCCC)CCCCCCCCC)CC1 [Compound 83, Pentyl 4-((2-(1-(N-(2-(dinonylamino)ethyl)-N-nonylglycyl)piperidin-4-yl)ethyl)(nonyl)amino)butanoate] | 1.46 |  |  |  |
| CCCCCCCCCCCCCCN(CCCCCCCCCCCCCC)CC(=O)N1CCN(C(=O)CN(CCCCCCCCC)CCN(CCCCCCCCC)CCCCCCCCC)CC1 [Compound 51, 2-((2-(Dinonylamino)ethyl)(nonyl)amino)-1-(4-(ditetradecylglycyl)piperazin-1-yl)ethan-1-one] |  | 0.190 | 5.22 |  |
| CCCCCCCCCN(CCCCC(=O)OCCCC)CCC1CCN(C(=O)CN(CCCCCCCCC)CCN(CCCCCCCCC)CCCCCCCCC)CC1 [Compound 60, Butyl 5-((2-(1-(N-(2-(dinonylamino)ethyl)-N-nonylglycyl)piperidin-4-yl)ethyl)(nonyl)amino)pentanoate] |  |  |  | Liver/Spleen Ratio [2]: 15; Lipid/MC3 AUC [2]: 2.00 |
| CCCCCCCCCN(CCCCCCCCC)CCN(CCCCCCCCC)CCC1CCN(C(=O)CN(CCCCCCCCC)CCCCCCCCC)CC1 [Compound 50, 2-(Dinonylamino)-1-(4-(2-((2-(dinonylamino)ethyl)(nonyl)amino)ethyl)piperidin-1-yl)ethan-1-one] |  | 0.190 | 0.01 |  |
| CCCCCCCCCN(CCCCCCCCC)CCN(CCCCCCCCC)CC(=O)N1CCN(C(=O)CN(CCCCCCCCC)CCCCCC(=O)OCCC)CC1 [Compound 54, Propyl 6-((2-(4-(N-(2-(dinonylamino)ethyl)-N-nonylglycyl)piperazin-1-yl)-2-oxoethyl)(nonyl)amino)hexanoate] |  |  |  | Liver/Spleen Ratio [2]: 32; Lipid/MC3 AUC [2]: 0.13 |
| CCCCCCCCCN(CCCCCCCC(=O)OC)CCN(CCCCCCCC(=O)OC)CC(=O)N1CCN(C(=O)CN(CCCCCCCCC)CCCCCCCCC)CC1 [Compound 48, Methyl 8-((2-(4-(dinonylglycyl)piperazin-1-yl)-2-oxoethyl)(2-((8-methoxy-8-oxooctyl)(nonyl)amino)ethyl)amino)octanoate] |  | 0.099 | 0.01 |  |
| CCCCCCCCCN(CCCCCCCCC)CCC(=O)N1CCN(C(=O)CCN(CCCCCCCCC)CCN(CCCCCCCCC)CCCCCCCCC)CC1 [Compound 52, 3-(Dinonylamino)-1-(4-(3-((2-(dinonylamino)ethyl)(nonyl)amino)propanoyl)piperazin-1-yl)propan-1-one] |  | 0.100 | 7.46 |  |
| CCCCCCCCCN(CCCCCCCCC)CCN(CCCCCCCC(=O)OC)CC(=O)N1CCN(C(=O)CN(CCCCCCCCC)CCCCCCCCC)CC1 [Compound 47, Methyl 8-((2-(dinonylamino)ethyl)(2-(4-(dinonylglycyl)piperazin-1-yl)-2-oxoethyl)amino)octanoate] |  | 0.180 | 0.22 |  |
| CCCCCCCCCN(CCCCCCCC(=O)OC)CCN(CCCCCCCCC)CC(=O)N1CCN(C(=O)CN(CCCCCCCCC)CCCCCCCCC)CC1 [Compound 46, Methyl 8-((2-((2-(4-(dinonylglycyl)piperazin-1-yl)-2-oxoethyl)(nonyl)amino)ethyl)(nonyl)amino)octanoate] |  | 0.160 | 0.46 |  |
| CCCCCCCCCN(CCCC(=O)OCCCCC)CCN(CCCCCCCCC)CC(=O)N1CCN(C(=O)CN(CCCCCCCCC)CCCC(=O)OCCCCC)CC1 [Compound 71, Pentyl 4-(nonyl(2-(4-(N-nonyl-N-(2-(nonyl(4-oxo-4-(pentyloxy)butyl)amino)ethyl)glycyl)piperazin-1-yl)-2-oxoethyl)amino)butanoate] |  |  |  | Liver/Spleen Ratio [2]: 25; Lipid/MC3 AUC [2]: 1.25 |
